Measured values published in article PMC10991105 (Bioresources and Bioprocessing, 2024).

Biological target: T1, tyrosinase
T1 construct: gene PPO1; tyrosinase of unstated source and supplier
Test: L-tyrosine oxidation, absorbance at […] nm
Type: biochemical
Conditions: L-tyrosine substrate (0.1 mg/mL stock, 40 μL in 200 μL); PBS; 37 °C; 30 min

IC50: 35 µM
SMILES: CCCCCCCCCCCC(=O)OC[C@H]1O[C@H](Oc2ccc(O)cc2)[C@H](O)[C@@H](O)[C@@H]1O [6′-O-lauroylarbutin]
